Reference: BindingDB's records for PubMed 995128 (1976)
Values joined by “and” are separate entries in the source; they are usually repeats but may differ in a detail not shown here. Equal values may be shown once.

Experiments:
D(1A) dopamine receptor = D(1A) dopamine receptor (Bos taurus, UniProt Q95136)
D(2) dopamine receptor = D(2) dopamine receptor (Bos taurus, UniProt P20288)
Sequence of D(2) dopamine receptor (P20288 whole entry): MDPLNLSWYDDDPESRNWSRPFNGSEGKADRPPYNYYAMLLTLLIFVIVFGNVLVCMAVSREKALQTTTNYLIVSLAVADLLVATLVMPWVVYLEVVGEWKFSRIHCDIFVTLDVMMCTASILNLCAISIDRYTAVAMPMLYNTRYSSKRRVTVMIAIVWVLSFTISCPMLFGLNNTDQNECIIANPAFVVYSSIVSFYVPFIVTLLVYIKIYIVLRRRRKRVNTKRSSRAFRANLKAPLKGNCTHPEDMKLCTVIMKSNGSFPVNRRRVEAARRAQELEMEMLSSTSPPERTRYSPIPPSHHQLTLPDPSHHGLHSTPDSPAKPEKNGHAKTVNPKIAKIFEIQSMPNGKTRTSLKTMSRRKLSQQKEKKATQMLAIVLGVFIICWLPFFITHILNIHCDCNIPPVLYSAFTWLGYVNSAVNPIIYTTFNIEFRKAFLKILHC

Sequence of D(1A) dopamine receptor (Q95136 whole entry): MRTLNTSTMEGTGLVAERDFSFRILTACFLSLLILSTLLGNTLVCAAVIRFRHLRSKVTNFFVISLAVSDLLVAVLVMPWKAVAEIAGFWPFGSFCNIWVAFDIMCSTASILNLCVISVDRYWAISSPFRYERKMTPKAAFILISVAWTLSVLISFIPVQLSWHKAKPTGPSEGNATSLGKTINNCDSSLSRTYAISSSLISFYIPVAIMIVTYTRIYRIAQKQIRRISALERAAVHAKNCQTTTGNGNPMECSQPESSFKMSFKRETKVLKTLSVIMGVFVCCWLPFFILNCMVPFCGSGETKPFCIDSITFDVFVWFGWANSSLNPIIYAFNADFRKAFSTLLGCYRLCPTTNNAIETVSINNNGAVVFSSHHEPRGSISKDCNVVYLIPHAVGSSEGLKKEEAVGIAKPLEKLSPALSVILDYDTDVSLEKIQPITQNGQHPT

Row | SMILES | Ki (D(1A) dopamine receptor) | Ki (D(2) dopamine receptor)
1 | CNCCc1ccc(O)c(O)c1 [CAS_62-32-8] | 23 nM | 530 nM
2 | O=C(CCC(F)N1CCC(O)(c2cccc(C(F)(F)F)c2)CC1)c1ccccc1 (stereo not drawn) [CAS_749-13-3] | 740 nM | 0.95 nM
3 | NC(=O)C1(N2CCCCC2)CCN(CCCC(=O)c2ccc(F)cc2)CC1 [CAS_1893-33-0] | 4900 nM | 31 nM
4 | O=C(CCCN1CCC(n2c(O)nc3ccccc32)CC1)c1ccc(F)cc1 [CAS_2062-84-2] | 4100 nM | 0.33 nM
5 | CCC(=O)C(CC(C)N(C)C)(c1ccccc1)c1ccccc1 (stereo not drawn) [CAS_5967-73-7] | > 10000 nM | 2700 nM
6 | O=C(CCCN1CCC(O)(c2ccc(Cl)c(C(F)(F)F)c2)CC1)c1ccc(F)cc1 [CAS_10457-91-7] | 360 nM | 0.5 nM
7 | OCCC1CCN(CCC=C2c3ccc(F)cc3Sc3ccc(C(F)(F)F)cc32)CC1 [CAS_60197-32-2] | 67 nM | 0.9 nM
8 | CNCC(O)c1ccc(O)c(O)c1 (stereo not drawn) [EPINEPHRINE] | 280 nM and 1200 nM | 2600 nM and > 10000 nM
9 | CC(C)[C@H]1C(=O)N2CCC[C@H]2[C@]2(O)O[C@](NC(=O)[C@@H]3C=C4c5cccc6[nH]cc(c56)C[C@H]4N(C)C3)(C(C)C)C(=O)N12 [ERGOCORNINE] | 36 nM | 0.7 nM
10 | COc1ccccc1N1CCN(CCCC(=O)c2ccc(F)cc2)CC1 [Fluanisone] | 800 nM | 3.8 nM
11 | CCN(CC)C(=O)[C@@H]1C=C2c3cccc4[nH]c(Br)c(c34)C[C@H]2N(C)C1 [LSD,2-Bromo] | 54 nM | 4 nM
12 | CN1CCN2c3ccccc3Cc3ccccc3[C@H]2C1 [MIANSERIN (+)] | 2500 nM | 620 nM
13 | CCc1c(C)[nH]c2c1C(=O)C(CN1CCOCC1)CC2 (stereo not drawn) [Moban] | > 10000 nM | 68 nM and 65 nM and 85 nM and 90 nM
14 | CC(CN1c2ccccc2Sc2ccccc21)N(C)C (stereo not drawn) [N,N,alpha-trimethyl-10H-phenothiazine-10-ethanamine] | > 10000 nM | 240 nM
15 | Cc1ccc(C2(O)CCN(CCCC(=O)c3ccc(F)cc3)CC2)cc1 [NSC_4249] | 1200 nM | 1.9 nM
16 | OCCN1CCN(CCC=C2c3ccccc3Sc3ccc(Cl)cc32)CC1 [NSC_12454] | > 10000 nM | 88 nM
17 | OCCN1CCN(CCCC2c3ccc(F)cc3Sc3ccc(C(F)(F)F)cc32)CC1 (stereo not drawn) [NSC_68751] | 1900 nM | 2.6 nM
18 | NCC(O)c1ccc(O)c(O)c1 (stereo not drawn) [Noradrenaline,(+)] | 820 nM and 200 nM | > 10000 nM and 5600 nM
19 | OC1(c2ccc(Cl)c(C(F)(F)F)c2)CCN(CCCC(c2ccc(F)cc2)c2ccc(F)cc2)CC1 [Penfluridol] | 1600 nM | 5.6 nM
20 | CC(C)[C@@]1(NC(=O)[C@@H]2C=C3c4cccc5[nH]cc(c45)C[C@H]3N(C)C2)O[C@@]2(O)[C@@H]3CCCN3C(=O)[C@H](Cc3ccccc3)N2C1=O [SMR000058447] | 52 nM | 1.4 nM
21 | Cc1ccc(N(CC2=NCCN2)c2cccc(O)c2)cc1 [SMR000059054] | > 10000 nM | 2000 nM
22 | CN(C)CCCN1c2ccccc2Sc2ccc(C(F)(F)F)cc21 [TRIFLUPROMAZINE] | 530 nM | 2.1 nM
23 | CC(C)=CCN1CC[C@@]2(C)c3cc(O)ccc3C[C@@H]1[C@@H]2C [Talwin] | > 10000 nM | 3500 nM
24 | CSc1ccc2c(c1)C(N1CCN(C)CC1)Cc1ccccc1S2 (stereo not drawn) [methanesulfonic acid;1-methyl-4-(3-methylsulfanyl-5,6-dihydrobenzo[b][1]benzothiepin-5-yl)piperazine] | 210 nM | 1.4 nM
